The target in one series is T1, mGlyT-1b (Mus musculus, UniProt P28571).
T1 construct: host or cells: Flp-in-CHO
T1 sequence (P28571 1-651 isoform P28571-2): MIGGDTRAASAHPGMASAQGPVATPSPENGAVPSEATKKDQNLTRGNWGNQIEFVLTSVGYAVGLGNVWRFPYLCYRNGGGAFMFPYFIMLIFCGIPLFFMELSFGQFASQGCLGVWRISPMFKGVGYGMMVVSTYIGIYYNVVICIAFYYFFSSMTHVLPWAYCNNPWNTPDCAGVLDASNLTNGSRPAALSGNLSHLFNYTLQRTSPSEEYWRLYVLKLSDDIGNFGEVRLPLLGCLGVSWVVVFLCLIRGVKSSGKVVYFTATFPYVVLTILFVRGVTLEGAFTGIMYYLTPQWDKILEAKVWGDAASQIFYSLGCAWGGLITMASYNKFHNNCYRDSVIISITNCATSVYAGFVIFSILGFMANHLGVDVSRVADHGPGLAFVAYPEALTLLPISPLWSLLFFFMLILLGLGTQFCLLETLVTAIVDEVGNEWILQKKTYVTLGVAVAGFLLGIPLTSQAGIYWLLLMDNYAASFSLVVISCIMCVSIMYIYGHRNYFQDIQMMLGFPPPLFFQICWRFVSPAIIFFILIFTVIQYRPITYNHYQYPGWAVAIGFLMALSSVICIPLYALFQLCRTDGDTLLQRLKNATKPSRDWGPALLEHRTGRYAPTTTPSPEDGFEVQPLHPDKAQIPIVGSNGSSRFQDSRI
Kind of series: Glycine Uptake Inhibition Assay (mGlyT-1b). The format is cell-based. The following applies: [3H]-glycine uptake in Flp-in-CHO cells stably transfected with mGlyT1b cDNA; 20 min preincubation at 22° C.; read-out: IC50 (μM) at GlyT-1. The method, then: DMEM complete medium: Nutrient mixture F-12 (Gibco Life-technologies), fetal bovine serum (FBS) 5%, (Gibco life technologies), Penicillin/Streptomycin 1% (Gibco life technologies), Hygromycin 0.6 mg/ml (Gibco life technologies), Glutamine 1 mM Gibco life technologies)
Uptake buffer (UB): 150 mM NaCl, 10 mM Hepes-Tris, pH 7.4, 1 mM CaCl2, 2.5 mM KCl, 2.5 mM MgSO4, 10 mM (+) D-glucose. Flp-in™-CHO (Invitrogen Cat n^o R758-07)cells stably transfected with mGlyT1b cDNA.
Glycine Uptake Inhibition Assay (mGlyT-1b)
On day 1 mammalian cells, (Flp-in™-CHO), transfected with mGlyT-1b cDNA, were plated at the density of 40,000 cells/well in complete F-12 medium, without hygromycin in 96-well culture plates. On day 2 ,the medium was aspirated, and the cells were washed twice with uptake buffer (UB). The cells were then incubated for 20 min at 22° C. with either (i) no potential competitor, (ii) 10 mM non-radioactive glycine, (iii) a concentration of a potential inhibitor. A range of concentrations of the potential inhibitor was used to generate data for calculating the concentration of inhibitor resulting in 50% of the effect (e.g. IC50, the concentration of the competitor inhibiting glycine uptake of 50%). A solution was then immediately added containing [^3H]-glycine 60 nM (11-16 Ci/mmol) and 25 μM non-radioactive glycine. The plates were incubated with gentle shaking, and the reaction was stopped by aspiration of the mixture and washing (three times) with ice-cold UB. The cells were lysed with scintillation liquid, shaken 3 hours, and the radioactivity in the cells was counted using a scintillation counter.
On to `CS(=O)(=O)c1ccc(-c2cccs2)c(C(=O)N2CCN(c3ccc(C(F)(F)F)cc3)CC2)c1` [Example 52, (5-Methanesulfonyl-2-thiophen-2-yl-phenyl)-[4-(4-trifluoromethyl-phenyl)-piperazin-1-yl]-methanone], for which the IC50 (as a rule, the concentration at which inhibition is half-maximal) is 0.033 µM.

As for `CS(=O)(=O)c1ccc(C2=CCOCC2)c(C(=O)N2CCN(c3ccc(C(F)(F)F)cc3)CC2)c1` [Example 60, [2-(3,6-Dihydro-2H-pyran-4-yl)-5-methanesulfonyl-phenyl]-[4-(4-trifluoromethyl-phenyl)-piperazin-1-yl]-methanone], the IC50 was 0.019 µM.

Turning to `CS(=O)(=O)c1ccc(-c2ccsc2)c(C(=O)N2CCN(c3ccc(C(F)(F)F)cc3)CC2)c1` [Example 53, (5-Methanesulfonyl-2-thiophen-3-yl-phenyl)-[4-(4-trifluoromethyl-phenyl)-piperazin-1-yl]-methanone], the IC50 was 0.006 µM.

For the compound `Cc1ccc(-c2ccc(S(C)(=O)=O)cc2C(=O)N2CCN(c3ccc(C(F)(F)F)cc3)CC2)s1` [Example 55, [5-Methanesulfonyl-2-(5-methyl-thiophen-2-yl)-phenyl]-[4-(4-trifluoromethyl-phenyl)-piperazin-1-yl]-methanone], the IC50 worked out at 0.039 µM.

For `CCc1ccc(N2CCN(C(=O)c3cc(S(C)(=O)=O)ccc3C3CCCCC3)CC2)c(F)c1` [Example 69, (2-Cyclohexyl-5-methanesulfonyl-phenyl)-[4-(4-ethyl-2-fluoro-phenyl)-piperazin-1-yl]-methanone], the IC50 is 0.031 µM.

With `CC(=O)c1ccc(N2CCN(C(=O)c3cc(S(C)(=O)=O)ccc3C3=CCOCC3)CC2)c(F)c1` [Example 72, 1-(4-{4-[2-(3,6-Dihydro-2H-pyran-4-yl)-5-methanesulfonyl-benzoyl]-piperazin-1-yl}-3-fluoro-phenyl)-ethanone], the IC50 stood at 0.021 µM.

On to `CS(=O)(=O)c1ccc(C2=CCCCCC2)c(C(=O)N2CCN(c3ccc(C(F)(F)F)cc3)CC2)c1` [Example 75, (2-Cyclohept-1-enyl-5-methanesulfonyl-phenyl)-[4-(4-trifluoromethyl-phenyl)-piperazin-1-yl]-methanone], for which the IC50 was determined as 0.014 µM.

`CS(=O)(=O)c1ccc(-c2ccccc2)c(C(=O)N2CCN(c3ncc(C(F)(F)F)cc3Cl)CC2)c1` [Example 114, [4-(3-Chloro-5-trifluoromethyl-pyridin-2-yl)-piperazin-1-yl]-(4-methanesulfonyl-biphenyl-2-yl)-methanone]: the IC50 turned out to be 0.035 µM.

For the compound `CS(=O)(=O)c1ccc(-c2ccncc2)c(C(=O)N2CCN(c3ccc(C(F)(F)F)cc3)CC2)c1` [Example 59, (5-Methanesulfonyl-2-pyridin-4-yl-phenyl)-[4-(4-trifluoromethyl-phenyl)-piperazin-1-yl]-methanone], the IC50 was determined as 0.033 µM.

In the case of `CS(=O)(=O)c1ccc(-c2ccccc2F)c(C(=O)N2CCN(c3ccc(C#N)cc3F)CC2)c1` [Example 126, 3-Fluoro-4-[4-(2′-fluoro-4-methane-sulfonyl-biphenyl-2-carbonyl)-piperazin-1-yl]-benzonitrile], the IC50 was 0.039 µM.

As for `COC(=O)c1ccc([N+](=O)[O-])cc1C(=O)N1CCN(c2ccc(C(C)=O)cc2F)CC1` [Example 43, 2-[4-(4-Acetyl-2-fluoro-phenyl)-piperazine-1-carbonyl]-4-nitro-benzoic acid methyl ester], the IC50 was found to be 0.032 µM.

Turning to `CC(=O)c1ccc(N2CCN(C(=O)c3cc([N+](=O)[O-])ccc3-c3ccccc3)CC2)c(F)c1` [Example 15, 1-{3-Fluoro-4-[4-(4-nitro-biphenyl-2-carbonyl)-piperazin-1-yl]-phenyl}-ethanone], the IC50 was 0.023 µM.

In the case of `CNS(=O)(=O)c1ccc(-c2ccccc2)c(C(=O)N2CCN(c3ccc(C(F)(F)F)cc3)CC2)c1` [Example 76, 2-[4-(4-Trifluoromethyl-phenyl)-piperazine-1-carbonyl]-biphenyl-4-sulfonic acid methylamide], the IC50 amounted to 0.012 µM.

For `CC(=O)c1ccc(N2CCN(C(=O)c3cc(S(C)(=O)=O)ccc3-c3ccsc3)CC2)cc1` [Example 127, 1-{4-[4-(5-Methanesulfonyl-2-thiophen-3-yl-benzoyl)-piperazin-1-yl]-phenyl}-ethanone], the IC50 was 0.036 µM.

With `CC(=O)c1ccc(N2CCN(C(=O)c3cc(S(C)(=O)=O)ccc3C3=CCCCCC3)CC2)c(F)c1` [Example 73, 1-{4-[4-(2-Cyclohept-1-enyl-5-methanesulfonyl-benzoyl)-piperazin-1-yl]-3-fluoro-phenyl}-ethanone], the IC50 worked out at 0.013 µM.

In the case of `CC(=O)c1ccc(N2CCN(C(=O)c3cc([N+](=O)[O-])ccc3C3CC3)CC2)c(F)c1` [Example 16, 1-{4-[4-(2-Cyclopropyl-5-nitro-benzoyl)-piperazin-1-yl]-3-fluoro-phenyl}-ethanone], the IC50 was 0.026 µM.

In the case of `CS(=O)(=O)c1ccc(C2=CCCCC2)c(C(=O)N2CCN(c3ccc(C(F)(F)F)cc3)CC2)c1` [Example 77, (2-Cyclohex-1-enyl-5-methanesulfonyl-phenyl)-[4-(4-trifluoromethyl-phenyl)-piperazin-1-yl]-methanone], the IC50 turned out to be 0.011 µM.

Consider `CS(=O)(=O)c1ccc(-c2ccccc2)c(C(=O)N2CCN(c3ccc(C(F)(F)F)cc3F)CC2)c1` [Example 62, [4-(2-Fluoro-4-trifluoromethyl-phenyl)-piperazin-1-yl]-(4-methanesulfonyl-biphenyl-2-yl)-methanone], for which the IC50 worked out at 0.019 µM.

For the compound `CC(=O)c1ccc(N2CCN(C(=O)c3cc(S(C)(=O)=O)ccc3C3=CCCC3)CC2)c(F)c1` [Example 71, 1-{4-[4-(2-Cyclopent-1-enyl-5-methanesulfonyl-benzoyl)-piperazin-1-yl]-3-fluoro-phenyl}-ethanone], the IC50 is 0.013 µM.

Turning to `CS(=O)(=O)c1ccc(C2CCCC2)c(C(=O)N2CCN(c3ccc(C(F)(F)F)cc3)CC2)c1` [Example 79, (2-Cyclopentyl-5-methanesulfonyl-phenyl)-[4-(4-trifluoromethyl-phenyl)-piperazin-1-yl]-methanone], the IC50 turned out to be 0.008 µM.

For the compound `CS(=O)(=O)c1ccc(-c2ccccc2F)c(C(=O)N2CCN(c3ncc(C(F)(F)F)cc3Cl)CC2)c1` [Example 111, [4-(3-Chloro-5-trifluoromethyl-pyridin-2-yl)-piperazin-1-yl]-(2′-fluoro-4-methanesulfonyl-biphenyl-2-yl)-methanone], the IC50 was determined as 0.038 µM.

Regarding `CS(=O)(=O)c1ccc(-c2ccc(F)cc2)c(C(=O)N2CCN(c3ccc(C(F)(F)F)cc3F)CC2)c1` [Example 63, (4′-Fluoro-4-methanesulfonyl-biphenyl-2-yl)-[4-(2-fluoro-4-trifluoromethyl-phenyl)-piperazin-1-yl]-methanone], the IC50 came to 0.01 µM.

For the compound `CS(=O)(=O)c1ccc(C2=CCOCC2)c(C(=O)N2CCN(c3ccc(C(F)(F)F)cc3F)CC2)c1` [Example 91, [2-(3,6-Dihydro-2H-pyran-4-yl)-5-methanesulfonyl-phenyl]-[4-(2-fluoro-4-trifluoromethyl-phenyl)-piperazin-1-yl]-methanone], the IC50 was 0.022 µM.

On to `CC(=O)c1ccc(N2CCN(C(=O)c3cc(S(C)(=O)=O)ccc3C3=CCCCC3)CC2)c(F)c1` [Example 68, 1-{4-[4-(2-Cyclohex-1-enyl-5-methanesulfonyl-benzoyl)-piperazin-1-yl]-3-fluoro-phenyl}-ethanone], for which the IC50 came to 0.007 µM.

Test system in a further series: not given
Assay: not given
Settings: not given
As for `CC(=O)c1ccc(N2CCN(C(=O)c3c(Cl)ccc([N+](=O)[O-])c3Cl)CC2)c(F)c1` [Example 12, 1-{4-[4-(2,6-Dichloro-3-nitro-benzoyl)-piperazin-1-yl]-3-fluoro-phenyl}-ethanone], the melting point (as a rule, the temperature of the solid-liquid transition) is 209 to 211 °C.

For the compound `COC(=O)c1ccc([N+](=O)[O-])cc1C(=O)N1CCN(c2ccc(C(C)=O)cc2F)CC1` [Example 43, 2-[4-(4-Acetyl-2-fluoro-phenyl)-piperazine-1-carbonyl]-4-nitro-benzoic acid methyl ester], the melting point was in the range of 189 to 191 °C.

(Values after US7462617B2, “Substituted acylpiperazine derivatives” (Hoffmann-La Roche Inc., priority 2003, dated 2008).)
